Experimental data from ChEMBL document CHEMBL1139799, “Identification of novel chemical inhibitors for ubiquitin C-terminal hydrolase-L3 by virtual screening” (Bioorg Med Chem, 2007).
Values belong to the compound of their own block, whether it stands above or below them. The source made the active and inactive calls. The rule behind the calls is not given here.

Experiments:
[1] = molecular target: T1, Ubiquitin carboxyl-terminal hydrolase isozyme L3 (Homo sapiens, UniProt P15374); test: Inhibition of human UCH-L3 hydrolysis activity
T1 sequence (P15374 whole entry): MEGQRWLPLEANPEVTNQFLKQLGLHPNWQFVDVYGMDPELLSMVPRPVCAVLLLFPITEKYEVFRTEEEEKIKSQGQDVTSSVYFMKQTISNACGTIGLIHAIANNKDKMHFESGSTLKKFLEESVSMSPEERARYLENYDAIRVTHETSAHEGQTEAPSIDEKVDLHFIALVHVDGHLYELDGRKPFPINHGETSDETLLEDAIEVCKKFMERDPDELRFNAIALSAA

[2] = molecular target: T2, Ubiquitin carboxyl-terminal hydrolase isozyme L3 (Homo sapiens) (UniProt P15374); test: Inhibition of human UCH-L3 hydrolysis activity at 387 uM
T2 sequence (whole entry): T1 sequence (P15374 whole entry)

[3] = molecular target: T2, Ubiquitin carboxyl-terminal hydrolase isozyme L3 (Homo sapiens); test: Inhibition of human UCH-L3 hydrolysis activity at 350 uM relative to control; design: scale not given: the % may be the effect or the level left
[4] = molecular target: T2, Ubiquitin carboxyl-terminal hydrolase isozyme L3 (Homo sapiens); test: Inhibition of human UCH-L3 hydrolysis activity at 386 uM
[5] = molecular target: T2, Ubiquitin carboxyl-terminal hydrolase isozyme L3 (Homo sapiens); test: Inhibition of human UCH-L3 hydrolysis activity at 331 uM
[6] = molecular target: T2, Ubiquitin carboxyl-terminal hydrolase isozyme L3 (Homo sapiens); test: Inhibition of human UCH-L3 hydrolysis activity at 334 uM
[7] = molecular target: T2, Ubiquitin carboxyl-terminal hydrolase isozyme L3 (Homo sapiens); test: Inhibition of human UCH-L3 hydrolysis activity at 380 uM relative to control; design: scale not given: the % may be the effect or the level left
[8] = molecular target: T2, Ubiquitin carboxyl-terminal hydrolase isozyme L3 (Homo sapiens); test: Inhibition of human UCH-L3 hydrolysis activity at 375 uM relative to control; design: scale not given: the % may be the effect or the level left

IC50 [1]: 103 µM
Compound: Cc1ccc(C(=O)C2=C(O)C(=O)N(Cc3ccccc3)C2c2cccnc2)o1 (stereo not given)

Activity [2]: inactive
Compound: Nc1nc(CSc2nnc(-c3ccco3)n2-c2ccccc2)cs1

IC50 [1]: 123 µM
Activity [3]: 76.8%
Compound: Cc1ccc(C(=O)C2=C(O)C(=O)N(Cc3cccnc3)C2c2ccc(F)cc2)o1 (stereo not given)

Activity [4]: inactive
Compound: COc1cccc(N(CC(=O)NC2CCCC2)S(=O)(=O)c2ccccc2)c1

Activity [5]: inactive
Compound: CCS(=O)(=O)Nc1cccc(C2=NN(C(C)=O)C(c3cccs3)C2)c1 (stereo not given)

Activity [6]: inactive
Compound: COc1ccc(N(CC(=O)NC2CC2)S(=O)(=O)c2ccc(C)cc2)cc1

Activity [7]: 16.2%
Compound: Cn1c(SCc2nc(-c3cccs3)no2)nnc1-c1c[nH]c2ccccc12

IC50 [1]: 154 µM
Activity [8]: 76.5%
Compound: COc1ccc(C2C(C(=O)c3cccs3)=C(O)C(=O)N2c2nncs2)cc1 (stereo not given)
